Tests used:
Test in all cases: biochemical
Parameters in all cases: KINOMEscan active-site-directed competition binding panel, 468 kinases, percent of DMSO control at 1 uM
Conditions in all cases: KINOMEscan binding, percent of DMSO control; read-out: Ctrl%
[1] = target: PHKG1 (Homo sapiens, UniProt Q16816)
[2] = target: T1, PKAC-beta (Homo sapiens, UniProt P22694)
T1 construct: gene PRKACB

[3] = target: T2, TYK2(JH1domain-catalytic) (Homo sapiens, UniProt P29597)
T2 construct: JH1domain-catalytic

[4] = target: MAP4K5 (Homo sapiens, UniProt Q9Y4K4)
[5] = target: CHEK1 (Homo sapiens, UniProt O14757)
[6] = target: MAP4K2 (Homo sapiens, UniProt Q12851)
[7] = target: CAMK2B (Homo sapiens, UniProt Q13554)
[8] = target: T3, PIP5K2C (Homo sapiens, UniProt Q8TBX8)
T3 construct: gene PIP4K2C

[9] = target: ACVR2A (Homo sapiens, UniProt P27037)
[10] = target: EGFR(L861Q) (Homo sapiens, UniProt P00533, L861Q)
[11] = target: VRK2 (Homo sapiens, UniProt Q86Y07)
[12] = target: FGR (Homo sapiens, UniProt P09769)
[13] = target: PRKD1 (Homo sapiens, UniProt Q15139)
[14] = target: CSNK2A1 (Homo sapiens, UniProt P68400)
[15] = target: RET(V804L) (Homo sapiens, UniProt P07949, V804L)
[16] = target: CDKL2 (Homo sapiens, UniProt Q92772)
[17] = target: T4, RIPK5 (Homo sapiens, UniProt Q6XUX3)
T4 construct: gene DSTYK

[18] = target: T5, ABL1(T315I)-phosphorylated (Homo sapiens, UniProt P00519, T315I)
T5 construct: phosphorylated

[19] = target: GSK3A (Homo sapiens, UniProt P49840)
[20] = target: EGFR(L747-E749del, A750P) (Homo sapiens, UniProt P00533, A750P/DEL747-749)
[21] = target: BMPR1A (Homo sapiens, UniProt P36894)
[22] = target: PDPK1 (Homo sapiens, UniProt O15530)
[23] = target: T6, YANK3 (Homo sapiens, UniProt Q86UX6)
T6 construct: gene STK32C

[24] = target: PIM1 (Homo sapiens, UniProt P11309)

Chain of EGFR(L747-E749del, A750P) (P00533 with tags, fused parts or gaps DEL747-749/A750P): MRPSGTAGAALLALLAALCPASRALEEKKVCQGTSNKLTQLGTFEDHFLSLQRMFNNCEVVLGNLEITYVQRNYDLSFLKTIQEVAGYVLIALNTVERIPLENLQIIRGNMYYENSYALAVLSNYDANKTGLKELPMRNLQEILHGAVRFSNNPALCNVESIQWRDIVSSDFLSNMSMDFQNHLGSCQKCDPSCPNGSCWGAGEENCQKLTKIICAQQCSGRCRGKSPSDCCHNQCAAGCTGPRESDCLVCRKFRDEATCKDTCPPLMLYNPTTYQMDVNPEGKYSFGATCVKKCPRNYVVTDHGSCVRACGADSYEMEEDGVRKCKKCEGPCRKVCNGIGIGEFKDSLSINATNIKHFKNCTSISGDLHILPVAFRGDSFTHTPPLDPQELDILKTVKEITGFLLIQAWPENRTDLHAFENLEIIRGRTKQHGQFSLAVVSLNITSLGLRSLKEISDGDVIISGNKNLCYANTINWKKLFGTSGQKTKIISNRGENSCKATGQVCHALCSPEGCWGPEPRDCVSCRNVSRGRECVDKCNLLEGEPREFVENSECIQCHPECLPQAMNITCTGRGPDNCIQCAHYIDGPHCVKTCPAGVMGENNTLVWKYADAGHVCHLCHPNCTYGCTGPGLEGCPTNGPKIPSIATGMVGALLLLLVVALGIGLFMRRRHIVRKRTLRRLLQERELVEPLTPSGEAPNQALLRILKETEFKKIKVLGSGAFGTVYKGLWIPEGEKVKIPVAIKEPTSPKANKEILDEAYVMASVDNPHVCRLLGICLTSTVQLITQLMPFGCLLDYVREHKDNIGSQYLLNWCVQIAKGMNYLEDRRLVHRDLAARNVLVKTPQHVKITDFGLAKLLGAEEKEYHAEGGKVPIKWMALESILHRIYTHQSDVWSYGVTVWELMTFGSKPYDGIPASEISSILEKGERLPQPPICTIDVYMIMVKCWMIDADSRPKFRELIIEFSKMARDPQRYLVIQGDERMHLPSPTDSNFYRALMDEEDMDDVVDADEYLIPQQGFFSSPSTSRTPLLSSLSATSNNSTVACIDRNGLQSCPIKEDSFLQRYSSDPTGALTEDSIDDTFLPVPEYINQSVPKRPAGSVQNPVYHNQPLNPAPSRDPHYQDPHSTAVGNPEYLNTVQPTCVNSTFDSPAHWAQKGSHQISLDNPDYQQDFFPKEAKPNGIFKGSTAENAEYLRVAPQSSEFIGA
Chain of MAP4K5 (Q9Y4K4 whole entry): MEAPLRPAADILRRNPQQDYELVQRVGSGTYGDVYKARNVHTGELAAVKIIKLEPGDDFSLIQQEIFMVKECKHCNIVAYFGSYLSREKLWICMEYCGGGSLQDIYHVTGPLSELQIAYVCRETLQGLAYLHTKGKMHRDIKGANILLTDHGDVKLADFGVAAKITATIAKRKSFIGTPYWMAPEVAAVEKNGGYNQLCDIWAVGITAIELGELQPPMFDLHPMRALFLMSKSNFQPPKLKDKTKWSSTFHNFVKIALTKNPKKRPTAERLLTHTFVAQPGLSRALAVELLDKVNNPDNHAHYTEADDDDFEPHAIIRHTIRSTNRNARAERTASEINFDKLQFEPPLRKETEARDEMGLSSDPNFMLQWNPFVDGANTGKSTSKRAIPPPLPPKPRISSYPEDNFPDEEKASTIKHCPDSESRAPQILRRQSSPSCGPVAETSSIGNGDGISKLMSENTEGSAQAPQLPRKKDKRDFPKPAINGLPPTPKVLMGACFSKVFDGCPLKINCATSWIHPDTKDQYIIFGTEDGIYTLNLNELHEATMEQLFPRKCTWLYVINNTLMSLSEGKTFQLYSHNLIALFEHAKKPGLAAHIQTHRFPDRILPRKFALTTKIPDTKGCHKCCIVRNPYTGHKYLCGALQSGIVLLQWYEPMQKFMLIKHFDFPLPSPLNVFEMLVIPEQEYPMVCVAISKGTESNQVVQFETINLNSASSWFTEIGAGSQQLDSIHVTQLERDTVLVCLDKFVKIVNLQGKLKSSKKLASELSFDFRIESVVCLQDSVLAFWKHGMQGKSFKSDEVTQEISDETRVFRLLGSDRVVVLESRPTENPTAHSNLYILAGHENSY
Chain of CAMK2B (Q13554 whole entry): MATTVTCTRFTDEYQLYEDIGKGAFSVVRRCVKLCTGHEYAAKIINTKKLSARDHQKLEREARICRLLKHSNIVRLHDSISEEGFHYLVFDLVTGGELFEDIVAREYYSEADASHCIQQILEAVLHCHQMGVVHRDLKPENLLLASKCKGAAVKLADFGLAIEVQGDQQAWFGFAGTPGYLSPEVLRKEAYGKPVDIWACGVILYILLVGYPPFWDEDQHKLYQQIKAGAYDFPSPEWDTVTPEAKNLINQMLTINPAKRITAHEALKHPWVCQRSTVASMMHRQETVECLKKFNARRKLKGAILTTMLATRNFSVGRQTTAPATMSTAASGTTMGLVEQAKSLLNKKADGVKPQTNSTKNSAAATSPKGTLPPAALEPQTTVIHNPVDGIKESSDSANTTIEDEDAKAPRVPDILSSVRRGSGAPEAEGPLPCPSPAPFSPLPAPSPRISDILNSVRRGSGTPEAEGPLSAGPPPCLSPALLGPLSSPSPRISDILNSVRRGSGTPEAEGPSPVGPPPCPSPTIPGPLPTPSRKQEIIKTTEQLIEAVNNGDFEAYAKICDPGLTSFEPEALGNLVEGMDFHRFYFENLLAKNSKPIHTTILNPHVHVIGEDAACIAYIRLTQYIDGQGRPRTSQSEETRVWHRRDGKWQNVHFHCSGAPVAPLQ
Chain of EGFR(L861Q) (P00533 whole entry L861Q): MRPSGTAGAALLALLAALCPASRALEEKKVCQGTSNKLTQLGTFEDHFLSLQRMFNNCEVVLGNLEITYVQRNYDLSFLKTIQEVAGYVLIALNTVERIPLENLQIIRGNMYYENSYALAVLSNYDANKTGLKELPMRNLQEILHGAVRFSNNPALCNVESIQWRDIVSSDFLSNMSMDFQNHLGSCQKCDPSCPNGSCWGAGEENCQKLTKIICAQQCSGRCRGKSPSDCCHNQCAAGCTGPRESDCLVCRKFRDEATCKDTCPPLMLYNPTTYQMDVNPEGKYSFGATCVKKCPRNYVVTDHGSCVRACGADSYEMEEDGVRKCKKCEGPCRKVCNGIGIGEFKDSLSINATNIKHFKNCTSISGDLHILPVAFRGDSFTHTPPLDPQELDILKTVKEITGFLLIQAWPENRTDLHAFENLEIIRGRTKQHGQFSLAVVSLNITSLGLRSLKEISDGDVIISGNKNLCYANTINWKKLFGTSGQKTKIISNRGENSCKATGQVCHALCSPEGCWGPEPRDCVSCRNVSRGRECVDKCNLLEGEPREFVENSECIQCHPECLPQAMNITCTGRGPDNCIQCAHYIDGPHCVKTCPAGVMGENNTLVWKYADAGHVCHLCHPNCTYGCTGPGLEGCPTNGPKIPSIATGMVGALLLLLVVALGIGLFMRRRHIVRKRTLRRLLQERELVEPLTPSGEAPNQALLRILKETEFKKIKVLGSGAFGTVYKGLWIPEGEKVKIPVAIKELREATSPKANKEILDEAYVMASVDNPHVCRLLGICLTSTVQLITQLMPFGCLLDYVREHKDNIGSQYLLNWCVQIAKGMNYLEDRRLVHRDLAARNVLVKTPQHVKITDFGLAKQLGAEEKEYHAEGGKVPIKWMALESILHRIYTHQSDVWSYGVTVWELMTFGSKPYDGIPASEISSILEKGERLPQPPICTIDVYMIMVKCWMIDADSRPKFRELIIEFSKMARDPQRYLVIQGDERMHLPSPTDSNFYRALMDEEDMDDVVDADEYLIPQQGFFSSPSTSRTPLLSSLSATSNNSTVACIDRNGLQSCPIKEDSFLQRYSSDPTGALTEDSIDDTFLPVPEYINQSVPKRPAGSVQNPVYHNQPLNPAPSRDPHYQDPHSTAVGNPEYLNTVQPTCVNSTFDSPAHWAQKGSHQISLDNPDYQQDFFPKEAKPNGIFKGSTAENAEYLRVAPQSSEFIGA
Chain of RET(V804L) (P07949 whole entry V804L): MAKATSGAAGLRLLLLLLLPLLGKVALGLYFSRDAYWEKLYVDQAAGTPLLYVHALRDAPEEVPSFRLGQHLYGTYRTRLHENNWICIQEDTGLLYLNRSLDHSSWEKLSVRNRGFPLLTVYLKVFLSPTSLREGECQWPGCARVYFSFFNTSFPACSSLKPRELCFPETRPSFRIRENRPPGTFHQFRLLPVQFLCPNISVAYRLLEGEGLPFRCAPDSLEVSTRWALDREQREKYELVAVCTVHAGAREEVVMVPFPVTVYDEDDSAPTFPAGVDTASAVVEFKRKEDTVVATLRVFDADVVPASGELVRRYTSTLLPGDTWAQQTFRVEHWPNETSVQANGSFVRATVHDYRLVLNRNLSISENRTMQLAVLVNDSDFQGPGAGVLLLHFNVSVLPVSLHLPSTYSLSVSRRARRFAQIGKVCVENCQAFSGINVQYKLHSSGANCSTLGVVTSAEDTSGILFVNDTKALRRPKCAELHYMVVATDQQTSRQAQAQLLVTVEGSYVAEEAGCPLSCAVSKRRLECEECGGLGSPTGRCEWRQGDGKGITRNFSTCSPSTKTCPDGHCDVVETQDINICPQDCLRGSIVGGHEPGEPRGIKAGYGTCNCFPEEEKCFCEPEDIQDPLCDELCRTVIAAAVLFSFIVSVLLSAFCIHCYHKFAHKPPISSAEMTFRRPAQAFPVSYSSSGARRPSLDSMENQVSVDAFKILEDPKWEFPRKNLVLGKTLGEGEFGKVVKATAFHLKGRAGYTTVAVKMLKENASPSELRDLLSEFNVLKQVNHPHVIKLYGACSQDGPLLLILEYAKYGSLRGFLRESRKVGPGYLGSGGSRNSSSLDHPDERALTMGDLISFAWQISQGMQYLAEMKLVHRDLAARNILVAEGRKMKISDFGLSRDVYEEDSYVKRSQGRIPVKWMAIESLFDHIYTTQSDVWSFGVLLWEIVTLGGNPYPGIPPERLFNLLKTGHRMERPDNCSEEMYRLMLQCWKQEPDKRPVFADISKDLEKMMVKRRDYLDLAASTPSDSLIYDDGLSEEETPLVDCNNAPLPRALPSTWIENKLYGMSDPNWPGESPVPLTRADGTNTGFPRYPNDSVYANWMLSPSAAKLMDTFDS

## Cc1ccc(NC(=O)c2cccc(C(F)(F)F)c2)cc1Nc1cc(-c2cccnc2)nc2[nH]ccc12 [HZX-02-059]
[1]
  remaining binding at 1 µM: 97%
[2]
  remaining binding at 1 µM: 95%
[3]
  remaining binding at 1 µM: 100%
[4]
  remaining binding at 1 µM: 73%
[5]
  remaining binding at 1 µM: 88%
[6]
  remaining binding at 1 µM: 96%
[7]
  remaining binding at 1 µM: 94%
[8]
  remaining binding at 1 µM: 43%
[9]
  remaining binding at 1 µM: 75%
[10]
  remaining binding at 1 µM: 76%
[11]
  remaining binding at 1 µM: 100%
[12]
  remaining binding at 1 µM: 92%
[13]
  remaining binding at 1 µM: 96%
[14]
  remaining binding at 1 µM: 81%
[15]
  remaining binding at 1 µM: 100%
[16]
  remaining binding at 1 µM: 99%
[17]
  remaining binding at 1 µM: 100%
[18]
  remaining binding at 1 µM: 98%
[19]
  remaining binding at 1 µM: 98%
[20]
  remaining binding at 1 µM: 77%
[21]
  remaining binding at 1 µM: 69%
[22]
  remaining binding at 1 µM: 89%
[23]
  remaining binding at 1 µM: 81%
[24]
  remaining binding at 1 µM: 92%
